Source: PubChem BioAssay AID720696 (Broad Institute, 2013)

tested on: Clone20 osteoblast Shn3 3'UTR firefly luciferase, 24 h; assay: inhibitors of Schnurri-3 3'UTR luciferase expression – cell-based, luminescence, dry powder, dose response (AID 720696)

For `CN(C)c1nc(-c2ccccn2)nnc1-c1ccccc1`, which AC50 is on record?
Its AC50 is 2620 nM.

With `COc1ccc(NS(=O)(=O)c2ccc(C(=O)N3CCCCCC3)cc2)cc1` as the compound, how does the AC50 read?
Its AC50 is 3700 nM.

How did the AC50 turn out when `COc1ccc(Nc2nc(N3CCCCC3)c3ccccc3n2)cc1` was run?
Its AC50 is 1100 nM.

Which AC50 does the source give for `CN(CC(=O)Nc1cccc(S(=O)(=O)N2CCOCC2)c1)CC(=O)Nc1ccc(Cl)c(C(F)(F)F)c1` here?
The AC50 was 877 nM.

Which AC50 does the source give for `O=C1CSc2ccc(C(=O)Nc3cccc(S(=O)(=O)Nc4ccc(Br)cc4)c3)cc2N1` here?
Its AC50 is 1990 nM.

For `COc1ccccc1N1CCN(c2ncc(C(=O)N3CCN(c4cccc(Cl)c4)CC3)c3ccccc23)CC1`, which AC50 is on record?
The AC50 was 2540 nM.

With `CN(C)S(=O)(=O)c1cccc(NC(=O)c2cccc(S(=O)(=O)N3CCc4ccccc43)c2)c1` as the compound, how does the AC50 read?
Its AC50 is 2410 nM.

With `COc1ccc(NC(=O)c2nc(S(=O)(=O)Cc3cccc(C)c3)ncc2Cl)c(OC)c1` as the compound, how does the AC50 read?
Its AC50 is 3860 nM.

`Cc1cc(N2CCCC2=O)cc(C)c1S(=O)(=O)NCCOc1ccc(C(C)(C)C)cc1` was tested. Which AC50 did it give?
The AC50 was 797 nM.

With `CCOC(=O)C1(Cc2ccc(Cl)cc2)CCN(C(C)Cc2ccc(O)c(OC)c2)CC1` (stereo not drawn) as the compound, how does the AC50 read?
Its AC50 is 1620 nM.

With `CC(C)(C)NC(=O)CSc1nc2ccc(NC(=O)CSc3nnnn3Cc3ccccc3)cc2s1` as the compound, how does the AC50 read?
Its AC50 is 2140 nM.

`O=C(c1nnsc1S(=O)c1ccc(Cl)cc1)N1CCOCC1` (stereo not drawn) was tested. Which AC50 did it give?
Its AC50 is 5080 nM.

How did the AC50 turn out when `COc1cc2ncnc(N[C@H](C)c3ccccc3)c2cc1OC` was run?
Its AC50 is 5130 nM.

With `Cc1cc2c(cc(C(=O)N3CCC(C(=O)NC4CCCC4)CC3)n2Cc2c(F)cccc2Cl)o1` as the compound, how does the AC50 read?
The AC50 was 21300 nM.

With `Nc1nonc1C(=O)NCCNCc1cc(Br)ccc1OCc1ccc(F)cc1` as the compound, how does the AC50 read?
The AC50 was 2030 nM.

How did the AC50 turn out when `O=c1c2ccccc2nc2n1C(CSCc1ccc(Cl)cc1Cl)CS2` (stereo not drawn) was run?
Its AC50 is 2010 nM.

`COc1cc(CN2CCc3ccccc3C2)ccc1O` was tested. Which AC50 did it give?
Its AC50 is 2090 nM.

With `COc1ccc2c(c1)c(CC(=O)Nc1cc(C)ccc1C)c(C)n2C(=O)c1ccc(Cl)cc1` as the compound, how does the AC50 read?
Its AC50 is 3240 nM.

For `Cc1ccc2cc(CN(CC3CCCO3)C(=O)NC3CCCCC3)c(=O)[nH]c2c1C` (stereo not drawn), which AC50 is on record?
Its AC50 is 5220 nM.

How did the AC50 turn out when `CC(=O)N1CCN(C(=O)CCc2cc(C(C)(C)C)c(O)c(C(C)(C)C)c2)CC1` was run?
The AC50 was 4010 nM.

For `CCCc1nnc(NC(=O)c2nc(S(=O)(=O)Cc3ccc(C)cc3)ncc2Cl)s1`, which AC50 is on record?
The AC50 was 3830 nM.

With `CCOC(=O)C1CCN(C(=O)c2ccc(OCC(=O)Nc3cccc(C(F)(F)F)c3)c(OC)c2)CC1` as the compound, how does the AC50 read?
Its AC50 is 1400 nM.

With `CC(=O)Nc1cccc(NC(=O)CSc2ncc(-c3ccc(Cl)cc3)n2Cc2ccco2)c1` as the compound, how does the AC50 read?
Its AC50 is 3380 nM.

Which AC50 does the source give for `CN(C(=O)COc1ccccc1C(=O)NCCOc1ccccc1)c1ccccc1` here?
Its AC50 is 1920 nM.

With `Fc1ccc(-n2nnnc2-c2cnc(-c3cccs3)nc2C(F)(F)F)cc1` as the compound, how does the AC50 read?
The AC50 was 2760 nM.

Which AC50 does the source give for `CCOC(=O)c1ccc(NC(=O)Cn2ncc(Cl)c(Cl)c2=O)cc1` here?
The AC50 was 2560 nM.

For `CC(C)[C@H](NC(=O)OC(C)(C)C)c1nnc(S(=O)(=O)Cc2c(F)cccc2Cl)o1`, which AC50 is on record?
The AC50 was 17100 nM.

With `CCCOc1ccccc1C1CC(=O)Nc2cc3c(cc21)OCO3` (stereo not drawn) as the compound, how does the AC50 read?
Its AC50 is 2160 nM.
